# According to ChEMBL document CHEMBL1201862, “PubChem BioAssay data set” (2004):
# Active and inactive are the calls of the source.
# Tests used:
# [1] = molecular target: T1, Zinc finger protein mex-5 (Caenorhabditis elegans, UniProt Q9XUB2); assay: potency of MEX-5 RNA-binding blockers – biochemical, C. elegans, fluorescence polarization, dose response (AID 1960)
# T1 sequence (Q9XUB2 whole entry): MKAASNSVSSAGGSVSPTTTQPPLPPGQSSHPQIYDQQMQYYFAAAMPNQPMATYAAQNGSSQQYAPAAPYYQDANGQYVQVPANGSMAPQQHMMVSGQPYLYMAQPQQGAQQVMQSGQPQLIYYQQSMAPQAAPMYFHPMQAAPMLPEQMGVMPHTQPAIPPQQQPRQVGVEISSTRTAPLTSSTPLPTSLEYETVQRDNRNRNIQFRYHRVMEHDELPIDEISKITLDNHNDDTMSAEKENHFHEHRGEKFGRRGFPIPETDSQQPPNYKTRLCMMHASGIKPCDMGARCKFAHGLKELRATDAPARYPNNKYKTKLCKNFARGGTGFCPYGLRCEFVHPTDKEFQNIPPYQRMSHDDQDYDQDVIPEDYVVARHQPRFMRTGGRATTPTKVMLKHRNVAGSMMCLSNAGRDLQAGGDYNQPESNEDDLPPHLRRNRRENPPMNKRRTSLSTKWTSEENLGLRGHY
# [2] = molecular target: T2, RNA-binding protein pos-1 (Caenorhabditis elegans, UniProt G5EF15); assay: disruptors of C. elegans POS-1 RNA interaction – biochemical, fluorescence polarization, dose response (AID 1964);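 further: purified POS-1 fused to maltose binding protein made in E. coli; potency of compounds blocking POS-1 binding to fluorescent RNA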
# T2 sequence (G5EF15 whole entry): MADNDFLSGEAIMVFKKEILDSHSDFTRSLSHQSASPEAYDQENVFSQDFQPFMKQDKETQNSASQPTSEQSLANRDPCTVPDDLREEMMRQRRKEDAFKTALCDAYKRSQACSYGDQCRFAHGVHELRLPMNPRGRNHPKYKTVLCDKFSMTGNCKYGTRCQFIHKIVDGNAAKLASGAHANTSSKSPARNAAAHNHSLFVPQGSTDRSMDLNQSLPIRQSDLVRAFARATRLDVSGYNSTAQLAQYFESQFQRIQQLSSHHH
# INS1 = assay: INS-1E survival protection against cytokine death – cell-based, luminescence, retest, dose response (AID 449756); format: functional; settings: Rattus norvegicus, INS1;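 further: cell death triggered by IL-1 beta plus TNF-alpha plus IFN-gamma mixture; protective hits raise ATP signal compared with cytokine alone wells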
# [3] = molecular target: Glucose-6-phosphate 1-dehydrogenase (Homo sapiens, UniProt P11413); assay: inhibition of Homo sapiens G6PD, dose series – biochemical, fluorescence, selectivity assay for P. falciparum G6PD inhibitor project, dose response (AID 504792); format: functional
# Sequence of Glucose-6-phosphate 1-dehydrogenase (P11413 whole entry): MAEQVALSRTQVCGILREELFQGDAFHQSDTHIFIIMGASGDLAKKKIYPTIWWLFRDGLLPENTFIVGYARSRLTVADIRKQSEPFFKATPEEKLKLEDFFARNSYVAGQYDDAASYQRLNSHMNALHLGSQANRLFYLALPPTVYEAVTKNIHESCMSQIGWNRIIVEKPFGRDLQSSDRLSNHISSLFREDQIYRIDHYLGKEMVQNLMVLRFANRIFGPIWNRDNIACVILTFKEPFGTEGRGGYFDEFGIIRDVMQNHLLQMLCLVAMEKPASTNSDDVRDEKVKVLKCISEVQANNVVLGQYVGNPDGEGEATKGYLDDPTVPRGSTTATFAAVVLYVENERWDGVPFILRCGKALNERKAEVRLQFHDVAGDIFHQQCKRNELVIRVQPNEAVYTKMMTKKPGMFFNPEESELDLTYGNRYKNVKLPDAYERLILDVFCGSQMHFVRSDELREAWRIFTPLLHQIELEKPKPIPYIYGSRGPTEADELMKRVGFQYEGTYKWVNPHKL
# HEK293 [4] = assay: cells; settings: Homo sapiens
# HEK293 [5] = assay: cells; settings: Homo sapiens; remark: listed apart in the source
# [6] = molecular target: DNA dC->dU-editing enzyme APOBEC-3G (Homo sapiens, UniProt Q9HC16); assay: Dose Response confirmation of small molecule APOBEC3G DNA Deaminase Inhibitors via a fluorescence-based single-stranded DNA deaminase assay. [Related pubchem assays (depositor defined):AID493012, AID493028]; format: functional
# Sequence of DNA dC->dU-editing enzyme APOBEC-3G (Q9HC16 whole entry): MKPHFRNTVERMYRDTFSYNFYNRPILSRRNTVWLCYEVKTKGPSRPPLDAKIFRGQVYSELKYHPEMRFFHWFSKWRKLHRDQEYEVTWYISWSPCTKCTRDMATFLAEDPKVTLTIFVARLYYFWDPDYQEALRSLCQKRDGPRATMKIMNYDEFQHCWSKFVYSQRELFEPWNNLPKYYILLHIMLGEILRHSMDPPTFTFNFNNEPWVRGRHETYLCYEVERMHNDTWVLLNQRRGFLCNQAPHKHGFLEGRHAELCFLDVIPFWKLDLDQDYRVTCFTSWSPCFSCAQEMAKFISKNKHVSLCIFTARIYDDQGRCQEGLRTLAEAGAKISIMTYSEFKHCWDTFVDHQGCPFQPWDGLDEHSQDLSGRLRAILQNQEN
# Ion channel NompC = Ion channel NompC (Danio rerio, UniProt Q7T1G6); assay: Dose response cell-based high-throughput screening assay for agonists of the transient receptor potential channel N1 (TRPN1). [Related pubchem assays (depositor defined):AID1424, AID1448]; format: functional
# Mucolipin-3 = molecular target: T3, Mucolipin-3 (Homo sapiens, UniProt Q8TDD5); assay: Fluorescence counterscreen assay for […] agonists: dose response cell-based high-throughput screening assay to identify agonists of the transient receptor potential channel ML3 (TRPML3). [Related pubchem assays: 1424, 1448 ]; format: functional
# T3 sequence (Q8TDD5 whole entry): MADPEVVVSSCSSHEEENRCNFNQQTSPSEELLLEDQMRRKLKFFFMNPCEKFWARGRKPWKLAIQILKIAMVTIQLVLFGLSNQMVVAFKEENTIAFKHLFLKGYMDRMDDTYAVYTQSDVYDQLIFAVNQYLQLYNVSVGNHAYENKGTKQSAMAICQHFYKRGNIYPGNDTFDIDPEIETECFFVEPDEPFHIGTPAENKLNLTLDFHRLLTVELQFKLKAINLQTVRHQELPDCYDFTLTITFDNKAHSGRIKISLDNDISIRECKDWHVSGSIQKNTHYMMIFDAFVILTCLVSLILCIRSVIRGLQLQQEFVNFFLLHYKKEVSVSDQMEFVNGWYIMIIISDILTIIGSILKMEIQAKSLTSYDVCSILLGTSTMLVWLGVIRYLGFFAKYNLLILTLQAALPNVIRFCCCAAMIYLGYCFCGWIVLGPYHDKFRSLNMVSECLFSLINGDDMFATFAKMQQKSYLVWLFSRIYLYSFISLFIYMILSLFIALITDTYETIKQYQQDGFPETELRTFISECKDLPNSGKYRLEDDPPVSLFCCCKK
# [7] = molecular target: T4, Voltage-gated N-type calcium channel alpha-1B subunit/Amyloid beta A4 precursor protein-binding family A member 1 (Homo sapiens, UniProt Q00975+Q02410); format: protein assay
# T4 sequence (Q00975 whole entry): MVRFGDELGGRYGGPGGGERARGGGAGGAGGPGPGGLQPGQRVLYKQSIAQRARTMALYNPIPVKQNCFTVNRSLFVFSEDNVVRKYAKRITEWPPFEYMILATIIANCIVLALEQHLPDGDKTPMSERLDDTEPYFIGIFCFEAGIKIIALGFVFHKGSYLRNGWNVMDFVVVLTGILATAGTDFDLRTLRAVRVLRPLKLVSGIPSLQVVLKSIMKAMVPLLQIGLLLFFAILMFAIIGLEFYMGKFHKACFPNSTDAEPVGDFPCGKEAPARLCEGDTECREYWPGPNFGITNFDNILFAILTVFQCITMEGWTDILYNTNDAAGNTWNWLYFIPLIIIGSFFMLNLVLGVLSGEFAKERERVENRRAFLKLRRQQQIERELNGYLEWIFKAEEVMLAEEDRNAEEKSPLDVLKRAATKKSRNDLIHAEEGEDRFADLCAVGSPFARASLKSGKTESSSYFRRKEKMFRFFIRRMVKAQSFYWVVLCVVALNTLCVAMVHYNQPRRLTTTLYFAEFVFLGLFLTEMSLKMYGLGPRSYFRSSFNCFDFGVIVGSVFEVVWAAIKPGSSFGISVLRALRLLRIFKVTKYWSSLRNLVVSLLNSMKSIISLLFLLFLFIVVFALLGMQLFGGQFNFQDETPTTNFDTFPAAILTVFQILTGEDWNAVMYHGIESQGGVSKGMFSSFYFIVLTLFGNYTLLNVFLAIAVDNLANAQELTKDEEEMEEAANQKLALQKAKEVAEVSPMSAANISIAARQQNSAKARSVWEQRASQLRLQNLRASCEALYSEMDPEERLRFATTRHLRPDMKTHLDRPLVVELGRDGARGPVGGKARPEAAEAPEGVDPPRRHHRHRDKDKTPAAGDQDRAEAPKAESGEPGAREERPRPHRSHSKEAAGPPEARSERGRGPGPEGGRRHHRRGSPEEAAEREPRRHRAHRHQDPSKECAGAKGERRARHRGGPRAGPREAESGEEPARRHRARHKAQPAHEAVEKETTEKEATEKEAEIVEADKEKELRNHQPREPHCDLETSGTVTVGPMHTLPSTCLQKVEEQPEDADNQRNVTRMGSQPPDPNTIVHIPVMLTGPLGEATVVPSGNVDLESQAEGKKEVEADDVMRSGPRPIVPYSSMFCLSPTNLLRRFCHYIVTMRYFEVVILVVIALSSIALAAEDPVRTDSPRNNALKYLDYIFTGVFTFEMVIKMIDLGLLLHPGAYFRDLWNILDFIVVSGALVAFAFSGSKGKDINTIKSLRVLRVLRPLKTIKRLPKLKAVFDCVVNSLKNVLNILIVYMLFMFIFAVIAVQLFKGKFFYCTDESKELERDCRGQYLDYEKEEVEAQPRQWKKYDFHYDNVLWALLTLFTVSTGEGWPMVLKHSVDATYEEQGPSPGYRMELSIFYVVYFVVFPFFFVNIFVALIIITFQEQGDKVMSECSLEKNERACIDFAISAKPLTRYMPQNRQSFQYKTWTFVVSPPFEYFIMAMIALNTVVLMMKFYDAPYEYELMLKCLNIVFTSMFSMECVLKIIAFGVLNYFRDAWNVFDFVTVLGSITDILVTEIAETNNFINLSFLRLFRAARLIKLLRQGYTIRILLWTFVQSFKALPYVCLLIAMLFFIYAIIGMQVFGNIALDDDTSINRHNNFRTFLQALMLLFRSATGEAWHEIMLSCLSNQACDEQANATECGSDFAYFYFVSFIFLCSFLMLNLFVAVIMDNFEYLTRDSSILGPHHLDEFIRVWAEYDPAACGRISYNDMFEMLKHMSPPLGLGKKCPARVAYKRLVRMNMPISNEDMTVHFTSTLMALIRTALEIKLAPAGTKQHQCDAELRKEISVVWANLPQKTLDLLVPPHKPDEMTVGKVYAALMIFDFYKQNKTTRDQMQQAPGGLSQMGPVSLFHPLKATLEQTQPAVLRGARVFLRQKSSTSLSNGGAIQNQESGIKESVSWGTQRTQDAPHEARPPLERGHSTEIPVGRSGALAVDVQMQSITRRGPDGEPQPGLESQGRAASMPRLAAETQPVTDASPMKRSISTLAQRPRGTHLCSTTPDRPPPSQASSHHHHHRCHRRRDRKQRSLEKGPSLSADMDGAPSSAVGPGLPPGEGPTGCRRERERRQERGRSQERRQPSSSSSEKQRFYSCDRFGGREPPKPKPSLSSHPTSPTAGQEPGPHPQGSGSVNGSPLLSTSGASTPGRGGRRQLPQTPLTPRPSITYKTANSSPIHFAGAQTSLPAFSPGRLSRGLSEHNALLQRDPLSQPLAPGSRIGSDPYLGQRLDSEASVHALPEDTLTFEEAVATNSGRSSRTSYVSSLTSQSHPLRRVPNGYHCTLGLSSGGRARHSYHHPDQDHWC
# T4 sequence (Q02410 whole entry): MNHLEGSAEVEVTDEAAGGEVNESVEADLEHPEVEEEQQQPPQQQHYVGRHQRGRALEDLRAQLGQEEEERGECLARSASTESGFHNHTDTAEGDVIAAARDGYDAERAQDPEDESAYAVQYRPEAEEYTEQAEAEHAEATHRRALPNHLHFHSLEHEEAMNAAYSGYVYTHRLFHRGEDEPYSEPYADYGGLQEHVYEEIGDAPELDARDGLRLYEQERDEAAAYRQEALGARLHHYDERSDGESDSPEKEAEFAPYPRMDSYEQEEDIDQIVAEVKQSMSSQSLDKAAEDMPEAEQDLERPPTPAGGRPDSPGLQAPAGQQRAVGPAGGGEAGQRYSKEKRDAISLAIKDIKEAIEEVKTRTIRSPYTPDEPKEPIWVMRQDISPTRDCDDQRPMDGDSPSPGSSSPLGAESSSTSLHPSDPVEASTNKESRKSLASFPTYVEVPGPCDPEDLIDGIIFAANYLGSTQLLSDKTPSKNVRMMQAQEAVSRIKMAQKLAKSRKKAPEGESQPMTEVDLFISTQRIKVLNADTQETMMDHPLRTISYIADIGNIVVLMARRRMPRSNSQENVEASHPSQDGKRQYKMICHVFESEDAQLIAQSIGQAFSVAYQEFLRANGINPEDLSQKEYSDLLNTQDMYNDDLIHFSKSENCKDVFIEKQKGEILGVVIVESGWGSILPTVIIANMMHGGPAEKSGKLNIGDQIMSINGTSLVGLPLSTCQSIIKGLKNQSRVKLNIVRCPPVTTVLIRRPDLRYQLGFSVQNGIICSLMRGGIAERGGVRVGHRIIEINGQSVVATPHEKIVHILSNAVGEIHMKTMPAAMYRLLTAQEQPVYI
# [8] = molecular target: T4, Voltage-gated N-type calcium channel alpha-1B subunit/Amyloid beta A4 precursor protein-binding family A member 1; format: protein assay; remark: listed apart in the source
# [9] = NIH3T3 cell viability loss – ATP luminescence, mouse fibroblasts, counter-screen, dose response (AID 2010); format: functional, cell-based;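 further: cells exposed to compound for about 90 hours before reading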
# Large T antigen = Large T antigen (Simian virus 40, UniProt P03070); format: functional, Betapolyomavirus macacae;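 further: Confirmatory-stage PubChem screen for compounds that inhibit SV40 T antigen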
# Sequence of Large T antigen (P03070 whole entry): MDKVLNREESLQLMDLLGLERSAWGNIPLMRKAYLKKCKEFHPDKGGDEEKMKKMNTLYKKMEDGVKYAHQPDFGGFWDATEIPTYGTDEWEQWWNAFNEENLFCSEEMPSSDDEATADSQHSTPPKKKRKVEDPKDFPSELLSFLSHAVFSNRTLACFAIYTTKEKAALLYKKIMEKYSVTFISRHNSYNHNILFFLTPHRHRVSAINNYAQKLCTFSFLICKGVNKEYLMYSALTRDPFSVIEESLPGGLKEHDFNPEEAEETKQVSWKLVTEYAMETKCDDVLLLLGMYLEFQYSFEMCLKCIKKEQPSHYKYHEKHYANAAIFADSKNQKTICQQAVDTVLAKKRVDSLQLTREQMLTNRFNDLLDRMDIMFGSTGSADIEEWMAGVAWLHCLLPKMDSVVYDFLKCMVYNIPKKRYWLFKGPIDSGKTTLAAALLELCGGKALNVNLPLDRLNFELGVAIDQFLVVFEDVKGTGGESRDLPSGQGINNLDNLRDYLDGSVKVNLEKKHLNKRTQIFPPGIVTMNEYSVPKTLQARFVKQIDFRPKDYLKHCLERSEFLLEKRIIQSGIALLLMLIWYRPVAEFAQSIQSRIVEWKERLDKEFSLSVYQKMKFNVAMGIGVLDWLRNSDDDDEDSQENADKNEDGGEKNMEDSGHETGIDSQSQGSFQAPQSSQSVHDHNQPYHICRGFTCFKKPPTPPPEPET
# [10] = molecular target: DNA dC->dU-editing enzyme APOBEC-3A (Homo sapiens, UniProt P31941); assay: A3A deaminase inhibition for selectivity – biochemical, dose response (AID 504722); format: functional
# Sequence of DNA dC->dU-editing enzyme APOBEC-3A (P31941 whole entry): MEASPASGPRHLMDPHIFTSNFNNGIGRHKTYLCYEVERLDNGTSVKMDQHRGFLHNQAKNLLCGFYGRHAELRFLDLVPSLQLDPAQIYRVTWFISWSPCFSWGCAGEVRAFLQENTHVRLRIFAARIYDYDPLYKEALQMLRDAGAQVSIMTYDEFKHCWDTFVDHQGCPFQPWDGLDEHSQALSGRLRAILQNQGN
# [11] = Trypanosoma cruzi growth suppression in host cells – NIH3T3 host cells, beta-gal luminescence, confirmation (AID 2044); format: functional, cell-based;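 further: intracellular parasites grown in NIH/3T3 mouse fibroblasts as host cells; luminescent beta-galactosidase reporter signal from transgenic T. cruzi replicating inside host cells; inhibitors lower the luminescence signal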
# [12] = molecular target: T5, Mannose-6-phosphate isomerase (Homo sapiens, UniProt P34949); assay: MPI inhibition at elevated mannose 6-phosphate – biochemical, fluorescence intensity, high mannose 6-phosphate, primary screen (AID 1220)
# T5 sequence (P34949 whole entry): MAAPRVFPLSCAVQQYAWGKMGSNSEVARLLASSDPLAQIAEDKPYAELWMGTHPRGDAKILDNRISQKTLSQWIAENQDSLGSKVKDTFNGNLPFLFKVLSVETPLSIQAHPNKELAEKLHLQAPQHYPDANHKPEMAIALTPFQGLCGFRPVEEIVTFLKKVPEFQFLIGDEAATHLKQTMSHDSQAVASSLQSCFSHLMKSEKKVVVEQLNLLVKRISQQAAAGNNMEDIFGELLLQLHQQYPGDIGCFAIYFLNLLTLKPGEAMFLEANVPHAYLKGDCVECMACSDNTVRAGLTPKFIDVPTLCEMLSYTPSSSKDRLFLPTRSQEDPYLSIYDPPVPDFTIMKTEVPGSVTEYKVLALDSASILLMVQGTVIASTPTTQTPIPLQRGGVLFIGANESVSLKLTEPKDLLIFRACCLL
# Genome polyprotein = Genome polyprotein (dengue virus type 2, UniProt P29990); assay: flavivirus cap methylation enzyme inhibition – biochemical, confirmation dose response, primary screen (AID 588689); format: functional
# [13] = molecular target: T6, Rac GTPase-activating protein 1 (Homo sapiens, UniProt Q9H0H5); assay: blockers of MgcRacGAP-driven Rac1 GTP hydrolysis – biochemical, ADP Hunter fluorescence, primary and confirmatory, confirmation (AID 624330); format: functional
# T6 sequence (Q9H0H5 whole entry): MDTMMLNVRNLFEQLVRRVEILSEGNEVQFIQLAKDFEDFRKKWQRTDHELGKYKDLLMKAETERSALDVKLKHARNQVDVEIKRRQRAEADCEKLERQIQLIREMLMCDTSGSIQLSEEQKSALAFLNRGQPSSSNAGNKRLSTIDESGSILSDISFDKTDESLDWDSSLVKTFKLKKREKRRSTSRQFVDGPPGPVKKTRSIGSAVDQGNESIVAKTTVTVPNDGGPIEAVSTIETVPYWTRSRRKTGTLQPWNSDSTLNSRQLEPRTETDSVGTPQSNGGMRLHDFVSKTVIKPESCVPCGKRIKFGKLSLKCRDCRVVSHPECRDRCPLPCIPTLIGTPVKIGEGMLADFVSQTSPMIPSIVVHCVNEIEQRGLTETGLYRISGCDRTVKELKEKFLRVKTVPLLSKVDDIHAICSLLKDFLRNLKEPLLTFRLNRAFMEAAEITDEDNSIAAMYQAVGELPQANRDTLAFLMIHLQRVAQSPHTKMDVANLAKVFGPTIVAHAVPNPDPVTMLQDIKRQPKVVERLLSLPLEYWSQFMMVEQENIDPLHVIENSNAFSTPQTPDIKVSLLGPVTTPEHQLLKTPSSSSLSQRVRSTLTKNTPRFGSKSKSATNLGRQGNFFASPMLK
# [14] = molecular target: T7, Lysine-specific demethylase 4C (Homo sapiens, UniProt Q9H3R0); assay: inhibition of JMJD2C H3K9me3 demethylation – biochemical, DELFIA europium, cherry-picked samples, dose response (AID 488835); format: functional
# T7 sequence (Q9H3R0 whole entry): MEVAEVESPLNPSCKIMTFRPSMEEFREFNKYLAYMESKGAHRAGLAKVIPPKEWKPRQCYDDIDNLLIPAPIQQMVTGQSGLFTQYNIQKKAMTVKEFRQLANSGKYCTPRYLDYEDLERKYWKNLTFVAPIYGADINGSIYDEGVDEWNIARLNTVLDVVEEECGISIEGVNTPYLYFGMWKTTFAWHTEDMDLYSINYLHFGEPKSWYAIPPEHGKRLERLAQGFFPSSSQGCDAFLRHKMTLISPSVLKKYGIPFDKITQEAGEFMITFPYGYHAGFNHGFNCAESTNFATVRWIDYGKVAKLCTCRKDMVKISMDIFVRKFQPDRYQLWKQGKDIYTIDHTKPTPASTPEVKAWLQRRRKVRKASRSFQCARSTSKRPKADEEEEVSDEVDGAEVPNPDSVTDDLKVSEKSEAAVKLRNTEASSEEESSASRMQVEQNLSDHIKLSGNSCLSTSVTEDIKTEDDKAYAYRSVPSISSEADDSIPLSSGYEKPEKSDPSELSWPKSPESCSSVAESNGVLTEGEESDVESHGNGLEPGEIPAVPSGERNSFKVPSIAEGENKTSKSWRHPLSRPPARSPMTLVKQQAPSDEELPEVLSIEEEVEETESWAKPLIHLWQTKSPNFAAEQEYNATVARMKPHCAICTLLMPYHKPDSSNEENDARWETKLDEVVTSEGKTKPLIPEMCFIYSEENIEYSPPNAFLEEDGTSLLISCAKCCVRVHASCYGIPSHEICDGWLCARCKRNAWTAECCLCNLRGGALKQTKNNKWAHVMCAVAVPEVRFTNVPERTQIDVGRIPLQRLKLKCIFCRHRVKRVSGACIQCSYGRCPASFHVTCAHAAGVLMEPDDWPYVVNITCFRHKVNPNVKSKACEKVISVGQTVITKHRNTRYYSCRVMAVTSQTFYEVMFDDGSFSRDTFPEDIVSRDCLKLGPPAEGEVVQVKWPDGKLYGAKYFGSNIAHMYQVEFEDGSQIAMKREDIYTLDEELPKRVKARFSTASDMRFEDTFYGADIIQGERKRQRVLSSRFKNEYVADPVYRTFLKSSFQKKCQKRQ
# [15] = molecular target: T8, Bifunctional protein GlmU (Mycobacterium tuberculosis, UniProt P9WMN3); assay: Inhibitors of Mycobacterial Glucosamine-1-phosphate acetyl transferase (GlmU). Secondary screen.; set-up: species or system Mycobacterium tuberculosis H37Rv
# T8 sequence (P9WMN3 whole entry): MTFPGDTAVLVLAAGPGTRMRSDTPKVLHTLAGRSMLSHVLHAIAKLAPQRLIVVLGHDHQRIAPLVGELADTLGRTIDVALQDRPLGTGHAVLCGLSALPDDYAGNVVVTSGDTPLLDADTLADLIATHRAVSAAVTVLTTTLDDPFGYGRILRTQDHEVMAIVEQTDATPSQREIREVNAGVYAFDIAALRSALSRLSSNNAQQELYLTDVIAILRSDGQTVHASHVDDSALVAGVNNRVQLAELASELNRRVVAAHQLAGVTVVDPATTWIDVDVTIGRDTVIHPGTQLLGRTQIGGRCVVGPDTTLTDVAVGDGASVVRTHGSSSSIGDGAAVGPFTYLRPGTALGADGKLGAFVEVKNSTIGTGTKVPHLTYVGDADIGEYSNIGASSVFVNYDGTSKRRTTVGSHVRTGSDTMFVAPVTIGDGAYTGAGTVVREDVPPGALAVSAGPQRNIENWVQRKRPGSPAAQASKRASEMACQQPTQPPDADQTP
# Vero = assay: cells; format: functional, cell-based; settings: Chlorocebus sabaeus
smiles,measurement,setting,value
O=S(=O)(Nc1cc(Sc2cccc3cccnc23)c(O)c2ccccc12)c1ccc(F)cc1,EC50,[1],40.1 µM (active)
same,EC50,[2],> 300 µM (not active)
same,AC50,INS1,1.21 µM (active)
same,IC50,[3],> 80 µM (inactive)
N#Cc1c(N)n(C2CCCCC2)c2nc3ccccc3nc12,EC50,HEK293 [4],> 59.6 µM (inactive)
same,EC50,HEK293 [5],> 59.6 µM (inactive)
Cc1cc(C)c2c(=O)n(CC(=O)Nc3cccc(Cl)c3C)sc2n1,IC50,[6],6.83 µM (active)
same,EC50,Ion channel NompC,> 29.9 µM (inactive)
same,EC50,Mucolipin-3,> 29.9 µM (not active)
same,IC50,[7],17.8 µM (active)
same,IC50,[8],> 50 µM (inactive)
same,EC50,[9],7.73 µM (active)
same,IC50,Large T antigen,9.03 µM (active)
same,IC50,[3],46.5 µM (inactive)
same,IC50,[10],> 100 µM (inactive)
same,EC50,[11],1.65 µM (active)
Cc1c(N=C2C=C(Br)C(=O)C(Br)=C2)c(=O)n(-c2ccccc2)n1C,IC50,[12],> 50 µM (not active)
same,IC50,Genome polyprotein,82.5 µM (active)
same,IC50,Large T antigen,27 µM (active)
same,IC50,[13],52.2 µM (active)
same,IC50,[3],58.4 µM (inactive)
CN1C(=O)N(C)C(=O)C2(Sc3ccccc3C2=O)C1=O,AC50,[14],11.2 µM (active)
Cc1cccc(N2C(=O)NC(=O)/C(=C/c3ccc([N+](=O)[O-])o3)C2=O)c1,IC50,[15],149 µM (active)
same,AC50,[14],5.37 µM (active)
CCCCCn1/c(=N/C(=O)c2ccco2)c(C(=O)OCC)cc2c(=O)n3ccccc3nc21,EC50,HEK293 [4],> 59.6 µM (inactive)
same,EC50,HEK293 [5],> 59.6 µM (inactive)
O=c1oc(C2(O)CCCCC2)cc2ccc(-c3ccc4[nH]ccc4c3)cc12,IC50,Vero,1.11 µM (active)
